{"source": "paper PMC9963659", "about": "“Novel 2-Thiouracil-5-Sulfonamide Derivatives: Design, Synthesis, Molecular Docking, and Biological Evaluation as Antioxidants with 15-LOX Inhibition” (Molecules, 2023)", "key": {"[1]": {"test": "Hydrogen peroxide scavenging assay", "assay_type": "biochemical", "conditions": "mean ± SEM of three experiments", "experimental": "H2O2 assay is used to estimate the scavenging power of the target compounds (4–9) to H2O2.\nThe hydrogen peroxide (H2O2) scavenging activity of all novel synthesized compounds 3–9 was measured as previously reported (see Supplementary Materials).\n1-Biological Evaluation Details: a-In-vitro Assays for biological antioxidant Activity […]\nLinear regression analysis was performed to calculate drug concentration showing 50% free radical inhibition activity (IC50). All tests were performed in triplicates.\n-Scavenging of hydrogen peroxide\nIn this method, the decay or loss of hydrogen peroxide can be quantified spectrophotometrically at 230 nm when a scavenger is incubated with it. The procedure was applied with a few changes. In phosphate buffered saline, hydrogen […]\nperoxide (20 mM) solution was prepared in phosphate buffered saline (PBS, pH 7.4). In order to make different concentrations of 1 ml of the tested substances (3–9) or standards in methanol, 2 ml of hydrogen peroxide solution in PBS was added. After 10 minutes, the absorbance of H2O2 was measured at 230 nm in comparison to an ascorbic acid (AA) reference solution that contained phosphate buffer but no H2O2.\n% of H2O2 scavenging = [(A control -A sample) / A control] x100. […]"}, "[2]": {"test": "Lipid peroxidation assay (FeCl2/H2O2-stimulated linoleic acid peroxidation)", "assay_type": "biochemical", "conditions": "mean ± SEM of three experiments"}, "[3]": {"test": "DPPH radical scavenging assay", "assay_type": "biochemical", "conditions": "mean ± SEM of three experiments", "experimental": "The antioxidant potential of all target compounds (3–9) was determined using DPPH radical scavenging assay in comparison with ascorbic acid (AA) as the control treatment.\nThe mechanism of antioxidants as DPPH radical scavengers is based on their hydrogen-donation ability as hydrogen atoms or an electron transfer from the compound to the DPPH to form DPPH-H. The results of DPPH reduction are presented in Table 2, Figure 7.\nThe DPPH scavenging activity of all novel synthesized compounds (3–9) was measured as previously described (see Supplementary Materials).\n1-Biological Evaluation Details: a-In-vitro Assays for biological antioxidant Activity\n- DPPH scavenging method.\nA 96-well plate was filled with 100 µL of the investigated compounds at various concentrations (12.5, 25, 50, 100, and 200 µg/mL ). The plate was then incubated at room temperature for 30 min while being protected from light by adding 100 µL of 100µM DPPH methanolic solution to each well. At a λ517 nm. the solution's absorbance was measured.\nThe positive control was ascorbic acid, and the negative control was DMSO. According to the following equation, the percentage of DPPH scavenging activity was determined:\n% of DPPH scavenging = [(A control -A sample) / A control] x100. where A control is the absorbance of the control reaction (with all reagents except the test compound), and A sample is the absorbance of the test sample. Linear regression analysis was performed to calculate drug concentration showing 50% free radical inhibition activity (IC50). All tests were performed in triplicates. […]"}}, "data": [{"smiles": "O=C1O[C@H]([C@@H](O)CO)C(O)=C1O", "note": "[Ascorbic acid, reference compound]", "values": [{"measurement": "H2O2 IC50", "setting": "[1]", "result": "23.0 ± 1.37", "unit": "µg/mL"}, {"measurement": "Lipid Peroxidation IC50", "setting": "[2]", "result": "36.0 ± 1.30", "unit": "µg/mL"}, {"measurement": "DPPH IC50", "setting": "[3]", "result": "12.80 ± 0.90", "unit": "µg/mL"}]}, {"smiles": "CC(=O)c1cccc(NS(=O)(=O)c2c[nH]c(=S)[nH]c2=O)c1", "note": "[Compound 3, N-(3-Acetylphenyl)-4-oxo-2-thioxo-1,2,3,4-tetrahydropyrimidine-5-sulfonamide]", "values": [{"measurement": "H2O2 IC50", "setting": "[1]", "result": ">100", "unit": "µg/mL"}, {"measurement": "melting point", "result": "318 to 320", "unit": "°C"}, {"measurement": "Lipid Peroxidation IC50", "setting": "[2]", "result": ">100", "unit": "µg/mL"}, {"measurement": "DPPH IC50", "setting": "[3]", "result": "80.0 ± 0.70", "unit": "µg/mL"}]}, {"smiles": "O=C(C=Cc1cccc([N+](=O)[O-])c1)c1cccc(NS(=O)(=O)c2c[nH]c(=S)[nH]c2=O)c1", "note": "[Compound 4a, N-{3-[(2E)-3-(3-nitrophenyl)prop-2-enoyl]phenyl}-4-oxo-2-thioxo-1,2,3,4-tetrahydro pyrimidine-5-sulfonamide]", "values": [{"measurement": "H2O2 IC50", "setting": "[1]", "result": ">100", "unit": "µg/mL"}, {"measurement": "melting point", "result": "240 to 242", "unit": "°C"}, {"measurement": "Lipid Peroxidation IC50", "setting": "[2]", "result": ">100", "unit": "µg/mL"}, {"measurement": "DPPH IC50", "setting": "[3]", "result": "50.5 ± 0.79", "unit": "µg/mL"}]}, {"smiles": "O=C(/C=C/c1cccc(Cl)c1)c1cccc(NS(=O)(=O)c2c[nH]c(=S)[nH]c2=O)c1", "note": "[Compound 4b, N-{3-[(2E)-3-(3-chlorophenyl)prop-2-enoyl]phenyl}-4-oxo-2-thioxo-1,2,3,4-tetra hydropyrimidine-5-sulfonamide]", "values": [{"measurement": "H2O2 IC50", "setting": "[1]", "result": "95.0 ± 1.40", "unit": "µg/mL"}, {"measurement": "melting point", "result": "283 to 285", "unit": "°C"}, {"measurement": "Lipid Peroxidation IC50", "setting": "[2]", "result": ">100", "unit": "µg/mL"}, {"measurement": "DPPH IC50", "setting": "[3]", "result": "44.3 ± 1.67", "unit": "µg/mL"}]}, {"smiles": "O=C(/C=C/c1cccc(F)c1)c1cccc(NS(=O)(=O)c2c[nH]c(=S)[nH]c2=O)c1", "note": "[Compound 4c, N-{3-[(2E)-3-(3-fluorophenyl)prop-2-enoyl]phenyl}-4-oxo-2-thioxo-1,2,3,4-tetra hydropyrimidine-5-sulfonamide]", "values": [{"measurement": "H2O2 IC50", "setting": "[1]", "result": ">100", "unit": "µg/mL"}, {"measurement": "melting point", "result": "270 to 272", "unit": "°C"}, {"measurement": "Lipid Peroxidation IC50", "setting": "[2]", "result": ">100", "unit": "µg/mL"}, {"measurement": "DPPH IC50", "setting": "[3]", "result": "43.0 ± 0.50", "unit": "µg/mL"}]}, {"smiles": "Cc1cccc(/C=C/C(=O)c2cccc(NS(=O)(=O)c3c[nH]c(=S)[nH]c3=O)c2)c1", "note": "[Compound 4d, N-{3-[(2E)-3-(3-methylphenyl)prop-2-enoyl]phenyl}-4-oxo-2-thioxo-1,2,3,4-tetra hydropyrimidine-5-sulfonamide]", "values": [{"measurement": "H2O2 IC50", "setting": "[1]", "result": "80.0 ± 0.70", "unit": "µg/mL"}, {"measurement": "melting point", "result": "287 to 289", "unit": "°C"}, {"measurement": "Lipid Peroxidation IC50", "setting": "[2]", "result": ">100", "unit": "µg/mL"}, {"measurement": "DPPH IC50", "setting": "[3]", "result": "40.0 ± 1.70", "unit": "µg/mL"}]}, {"smiles": "O=C(CBr)c1cccc(NS(=O)(=O)c2c[nH]c(=S)[nH]c2=O)c1", "note": "[Compound 8, N-[3-(bromoacetyl)phenyl]-4-oxo-2-thioxo-1,2,3,4-tetrahydropyrimidine-5-sulfonamide]", "values": [{"measurement": "H2O2 IC50", "setting": "[1]", "result": ">100", "unit": "µg/mL"}, {"measurement": "melting point", "result": "305 to 307", "unit": "°C"}, {"measurement": "Lipid Peroxidation IC50", "setting": "[2]", "result": ">100", "unit": "µg/mL"}, {"measurement": "DPPH IC50", "setting": "[3]", "result": "70.27 ± 1.17", "unit": "µg/mL"}]}]}
